Measured values: patent US20170189416A1, “PHARMACEUTICAL COMPOSITION FOR TREATING BREAST CANCER” (MA SHEN KAI RUEi CO., LTD., priority 2015, published 2017)
“Also recorded” adds a separate entry of the source.

Tests used:
MCF-7 = assay: MTT survival assay on human breast-cancer cells MCF-7; format: cell-based; settings: MCF-7, MTT assay, isolated compound
Text: (§1) According to the present invention, the effects such as treating breast cancer, inhibiting the growth of breast cancer cell and others, of Antroquinonol B (AnQB) and/or dehydroeburicoic acid (DeHBA) may be tested by using any of the test methods used in the prior arts, for example, MTT assay of using 3-(4,5-dimethylthiazol-2-yl)-2, S-diphenyl tetrazolium bromide (MTT) to determine cell survival rates of breast cancer cell lines.
(§2) The Antroquinonol B (AnQB) and dehydroeburicoic acid (DeHBA) separately isolated from the Extraction A of Example 1 were added into the culture media of human breast-cancer cells, MCF-7 or MDA-MB-231, to test for tumor cell survival by using anti-cancer drug screen model. This survival assay was carried out with the widely known MTT (3-[4,5-dimethylthiazol-2-yl]2,5-diphenyltetrazolium bromide) assay.
(§3) MCF-7 cell line (purchased from B CRC) is originated from primary breast cancer cells (early stage), sensitive to estrogen and therefore is estrogen-dependent, while MDA-MB-231 is insensitive to estrogen and therefore is estrogen-independent, which is a difficult tumor with a low survival rate.
(§4) The human breast-cancer cells, MCF-7 and MDA-MB-231 were cultivated in media containing fetal calf serum for 36 hours. The proliferated cells were washed once with PBS, then treated with 1× trypsin-EDTA and centrifuged at 2000 rpm for 25 minutes. The supernatant was discarded and the cell pellet was re-suspended in 30 ml of fresh culture medium by gently shaking. The cells were placed in a 96-well plate.
(§5) Subsequently, the plates were read on an ELISA reader to determine the survival rates. The half maximal inhibitory concentration (IC50) values were calculated and results of ex vivo survival assay were thus obtained.
(§6) By using the same manner as the method described above, respectively human breast cancer cell line MCF-7 and MDA-MB-231 was cultured. After then, the pharmaceutical compositions A˜F of the present invention was applied separately, and then MTT assay for each sample was measured to assess the inhibition effectiveness of various cancer cell activity while using pharmaceutical compositions A˜F of the present invention.

MDA-MB-231 = assay: MTT survival assay on human breast-cancer cells MDA-MB-231; format: cell-based; settings: MDA-MB-231, MTT assay, isolated compound
Text: as §1, §2, §3, §4, §5, §6

Compound	half-maximal inhibitory concentration (IC50) (MCF-7)	survival rate of breast cancer cell line (MCF-7)	half-maximal inhibitory concentration (IC50) (MDA-MB-231)	survival rate of breast cancer cell line (MDA-MB-231)
C=C(CC[C@@H](C(=O)O)[C@H]1CC[C@@]2(C)C3=CC[C@H]4C(C)(C)[C@@H](O)CC[C@]4(C)C3=CC[C@]12C)C(C)C [dehydroeburicoic acid]	relatively low	can inhibit the growth of breast cancer cell; also recorded: can decrease the survival rates	relatively low	can inhibit the growth of breast cancer cell; also recorded: can decrease the survival rates
COC1=C(OC)[C@H](O)[C@H](C/C=C(\C)CC/C=C(/C)C/C=C/C(C)(C)O)[C@@H](C)C1=O [Antroquinonol B]	relatively low	can inhibit the growth of breast cancer cell; also recorded: can decrease the survival rates	relatively low	can inhibit the growth of breast cancer cell; also recorded: can decrease the survival rates
